Results taken from patent publication US20050282755A1, “Compositions having antimicrobial activity and uses thereof” (priority 2004, published 2005).
≈ marks a conversion by molar mass, not a printed value. Starred links: 1 amine or outer side, 2 acyl side, 3 side chain; linkers in the order of their positions; H or OH if unused. Non-standard residues stand in square brackets, D forms with d. Residues, ends and D or L forms follow the SMILES beside them. *: point of attachment. Ethylenediamine = C(CN[*:2])N[*:1]; Lauroyl = CCCCCCCCCCCC(=O)*; Decanoyl = CCCCCCCCCC(=O)*; Octanoyl = CCCCCCCC(=O)*; Hexanoyl = CCCCCC(=O)*

Assays:
Salmonella dublin (Lane) = experiment: MIC, NCCLS M7-A6 broth microdilution (Table 9, no superscript); assay type: cell-based
Experimental: (§1) Cation-adjusted Mueller Hinton broth was used in the broth microdilution method. In brief, a log-phase bacterial suspension was used to inoculate wells of a 96-well plate so that the final inoculum for each well contained 5×10^5 to 1×10^6 CFU/milliliter. […] Plates were incubated overnight at 37° C. The lowest concentration of peptide that contained no visible growth as evidenced by a lack of turbidity when compared to the control (no peptide) was determined as the MIC. Unless otherwise noted, MIC values listed in Table 9 utilized this method of MIC determination.

[1] = tested on: Staphylococcus aureus ATCC 29213; experiment: MIC, NCCLS M7-A6 broth microdilution, cation-adjusted Mueller Hinton broth (Table 9, no superscript); assay type: cell-based; details: ATCC 29213
Experimental: as §1

Structure (SMILES) | MIC S. dublin (Salmonella dublin (Lane)) | MIC S. aureus [1]
CCCCCCCCCCCC(=O)N[C@@H](CO)C(=O)N[C@@H](CCCNC(=N)N)C(=O)N[C@@H](Cc1c[nH]c2ccccc12)C(=O)N[C@@H](CCCNC(=N)N)C(=O)N[C@@H](CC(=O)O)C(=O)N[C@H](C(=O)N[C@@H](C)C(=O)N[C@@H](CCCNC(=N)N)C(=O)N[C@@H](CC(N)=O)C(=O)N[C@@H](Cc1ccccc1)C(=O)N[C@@H](CCSC)C(=O)N[C@@H](CCCNC(=N)N)C(N)=O)C(C)C [Peptide 114, Lauryl-SRWRDVARNFMR-NH2] (Lauroyl-SRWRDVARNFMR-NH2) | 4 µg/mL (≈ 2.25 µM) | 4 µg/mL (≈ 2.25 µM)
CSCC[C@H](NC(=O)[C@H](Cc1ccccc1)NC(=O)[C@H](CC(N)=O)NC(=O)[C@H](CCCNC(=N)N)NC(=O)[C@H](CO)NC(=O)[C@H](Cc1c[nH]c2ccccc12)NC(=O)[C@H](CC(=O)O)NC(=O)[C@H](CCCNC(=N)N)NC(=O)[C@H](Cc1c[nH]c2ccccc12)NC(=O)[C@H](CCCNC(=N)N)NC(=O)[C@H](CO)NC(=O)[C@H](CCCNC(=N)N)NC(=O)CNC(=O)[C@@H](NC(=O)[C@H](CCCNC(=N)N)NC(=O)[C@H](CO)NC(=O)[C@@H](NC(=O)[C@H](CCCNC(=N)N)NC(=O)[C@@H](NC(C)=O)[C@@H](C)O)C(C)C)[C@@H](C)O)C(=O)N[C@@H](CCCNC(=N)N)C(=O)N[C@@H](C)C(=O)N[C@@H](C)C(=O)N[C@@H](CCCCN)C(=O)N[C@@H](CCCCN)C(=O)N[C@@H](CCCCN)C(=O)N[C@@H](CCCCN)C(=O)N[C@@H](CCCCN)C(N)=O [Peptide 6] (Ac-TRVSRTGRSRWRDWSRNFMRAAKKKKK-NH2) | >64 µg/mL | >64 µg/mL
CSCC[C@H](NC(=O)[C@H](Cc1ccccc1)NC(=O)[C@H](CC(N)=O)NC(=O)[C@H](CCCNC(=N)N)NC(=O)[C@H](CO)NC(=O)[C@H](Cc1c[nH]c2ccccc12)NC(=O)[C@H](CC(=O)O)NC(=O)[C@H](CCCNC(=N)N)NC(=O)[C@H](Cc1c[nH]c2ccccc12)NC(=O)[C@H](CCCNC(=N)N)NC(=O)[C@H](CO)NC(=O)[C@H](CCCNC(=N)N)NC(=O)CNC(=O)[C@@H](NC(=O)[C@H](CCCNC(=N)N)NC(=O)[C@H](CO)NC(=O)[C@@H](NC(=O)[C@H](CCCNC(=N)N)NC(=O)[C@@H](NC(C)=O)[C@@H](C)O)C(C)C)[C@@H](C)O)C(=O)N[C@@H](CCCNC(=N)N)C(=O)N[C@@H](C)C(=O)N[C@@H](C)C(=O)N[C@@H](CCCNC(=N)N)C(=O)N[C@@H](CCCNC(=N)N)C(=O)N[C@@H](CCCNC(=N)N)C(=O)N[C@@H](CCCNC(=N)N)C(=O)N[C@@H](CCCNC(=N)N)C(=O)N[C@@H](CCCNC(=N)N)C(N)=O [Peptide 11] (Ac-TRVSRTGRSRWRDWSRNFMRAARRRRRR-NH2) | 32 µg/mL (≈ 8.58 µM) | 64 µg/mL (≈ 17.2 µM)
CCCCCC(=O)NCCCC[C@@H](NC(=O)[C@@H](CCCNC(=N)N)NC(=O)[C@@H](CC(C)C)NC(=O)[C@@H](Cc1ccccc1)NC(=O)[C@@H](CC(N)=O)NC(=O)[C@@H](CCCNC(=N)N)NC(=O)[C@@H](C)NC(=O)[C@H](NC(=O)[C@@H](CC(=O)O)NC(=O)[C@@H](CCCNC(=N)N)NC(=O)[C@@H](Cc1c[nH]c2ccccc12)NC(=O)[C@@H](CCCNC(=N)N)NC(=O)[C@@H](CO)NC(=O)[C@H](N)CCCNC(=N)N)C(C)C)C(N)=O [Peptide 192, H2N-rsrwrdvarnflrk(Hexanyl)-NH2] (H-[dR][dS][dR][dW][dR][dD][dV][dA][dR][dN][dF][dL][dR][dK](Hexanoyl)-NH2) | >64 µg/mL | >64 µg/mL
CSCC[C@H](NC(=O)[C@H](Cc1ccccc1)NC(=O)[C@H](CC(N)=O)NC(=O)[C@H](CCCNC(=N)N)NC(=O)[C@H](CO)NC(=O)[C@H](Cc1c[nH]c2ccccc12)NC(=O)[C@H](CC(=O)O)NC(=O)[C@H](CCCNC(=N)N)NC(=O)[C@H](Cc1c[nH]c2ccccc12)NC(=O)[C@H](CCCNC(=N)N)NC(=O)[C@H](CO)NC(=O)[C@H](CCCNC(=N)N)NC(=O)CNC(=O)[C@@H](NC(=O)[C@H](CCCNC(=N)N)NC(=O)[C@H](CO)NC(=O)[C@@H](NC(=O)[C@H](CCCNC(=N)N)NC(=O)[C@@H](NC(C)=O)[C@@H](C)O)C(C)C)[C@@H](C)O)C(=O)N[C@@H](CCCNC(=N)N)C(=O)N[C@@H](C)C(=O)N[C@@H](C)C(=O)N[C@@H](CCCNC(=N)N)C(=O)N[C@@H](CCCNC(=N)N)C(=O)N[C@@H](CCCNC(=N)N)C(=O)N[C@@H](CCCNC(=N)N)C(=O)N[C@@H](CCCNC(=N)N)C(N)=O [Peptide 10] (Ac-TRVSRTGRSRWRDWSRNFMRAARRRRR-NH2) | 64 µg/mL (≈ 17.9 µM) | >64 µg/mL
CCCCCCCCCCCC(=O)NCCNC(=O)[C@H](CCCNC(=N)N)NC(=O)[C@H](CC(C)C)NC(=O)[C@H](Cc1ccccc1)NC(=O)[C@H](CC(N)=O)NC(=O)[C@H](CCCNC(=N)N)NC(=O)[C@H](C)NC(=O)[C@@H](NC(=O)[C@H](CC(=O)O)NC(=O)[C@H](CCCNC(=N)N)NC(=O)[C@H](Cc1c[nH]c2ccccc12)NC(=O)[C@H](CCCNC(=N)N)NC(=O)[C@H](CO)NC(=O)[C@@H](N)CCCNC(=N)N)C(C)C [Peptide 171, H2N-RSRWRDVARNFLR-Ethylamidolauryl] (H-RSRWRDVARNFLR-{Ethylenediamine-Lauroyl}; C-terminus assumed) | 8 µg/mL (≈ 4.09 µM) | 8 µg/mL (≈ 4.09 µM)
CCCCCCCCCC(=O)NCCNC(=O)[C@H](CCCNC(=N)N)NC(=O)[C@H](CC(C)C)NC(=O)[C@H](Cc1ccccc1)NC(=O)[C@H](CC(N)=O)NC(=O)[C@H](CCCNC(=N)N)NC(=O)[C@H](C)NC(=O)[C@@H](NC(=O)[C@H](CC(=O)O)NC(=O)[C@H](CCCNC(=N)N)NC(=O)[C@H](Cc1c[nH]c2ccccc12)NC(=O)[C@H](CCCNC(=N)N)NC(=O)[C@H](CO)NC(=O)[C@@H](N)CCCNC(=N)N)C(C)C [Peptide 170, H2N-RSRWRDVARNFLR-Ethylamidodecanyl] (H-RSRWRDVARNFLR-{Ethylenediamine-Decanoyl}; C-terminus assumed) | 2 µg/mL (≈ 1.04 µM) | 2 µg/mL (≈ 1.04 µM)
CCCCCCCC(=O)N[C@@H](CCCNC(=N)N)C(=O)N[C@@H](CO)C(=O)N[C@@H](CCCNC(=N)N)C(=O)N[C@@H](Cc1c[nH]c2ccccc12)C(=O)N[C@@H](CCCNC(=N)N)C(=O)N[C@@H](CC(=O)O)C(=O)N[C@H](C(=O)N[C@@H](C)C(=O)N[C@@H](CCCNC(=N)N)C(=O)N[C@@H](CC(N)=O)C(=O)N[C@@H](Cc1ccccc1)C(=O)N[C@@H](CCSC)C(=O)N[C@@H](CCCNC(=N)N)C(N)=O)C(C)C [Peptide 203, Octyl-RSRWRDVARNFMR-NH2] (Octanoyl-RSRWRDVARNFMR-NH2) | >64 µg/mL | 32 µg/mL (≈ 17.1 µM)
CCCCCCCCCCCC(=O)N[C@H](CCCNC(=N)N)C(=O)N[C@H](CC(C)C)C(=O)N[C@H](CCCNC(=N)N)C(=O)N[C@H](Cc1c[nH]c2ccccc12)C(=O)N[C@H](CCCNC(=N)N)C(=O)N[C@H](CC(C)C)C(=O)N[C@@H](C(=O)N[C@H](CC(C)C)C(=O)N[C@H](CCCNC(=N)N)C(=O)N[C@H](CC(C)C)C(=O)N[C@H](Cc1ccccc1)C(=O)N[C@H](CC(C)C)C(=O)N[C@H](CCCNC(=N)N)C(N)=O)C(C)C [Peptide 218, Lauryl-rlrwrlvlrlflr-NH2] (Lauroyl-[dR][dL][dR][dW][dR][dL][dV][dL][dR][dL][dF][dL][dR]-NH2) | >64 µg/mL | >64 µg/mL
CSCC[C@H](NC(=O)[C@H](Cc1ccccc1)NC(=O)[C@H](CC(N)=O)NC(=O)[C@H](CCCNC(=N)N)NC(=O)[C@H](CO)NC(=O)[C@H](Cc1c[nH]c2ccccc12)NC(=O)[C@H](CC(=O)O)NC(=O)[C@H](CCCNC(=N)N)NC(=O)[C@H](Cc1c[nH]c2ccccc12)NC(=O)[C@H](CCCNC(=N)N)NC(=O)[C@H](CO)NC(=O)[C@H](CCCNC(=N)N)NC(=O)CNC(=O)[C@@H](NC(=O)[C@H](CCCNC(=N)N)NC(=O)[C@H](CO)NC(=O)[C@@H](NC(=O)[C@H](CCCNC(=N)N)NC(=O)[C@@H](NC(C)=O)[C@@H](C)O)C(C)C)[C@@H](C)O)C(=O)N[C@@H](CCCNC(=N)N)C(=O)N[C@@H](C)C(=O)N[C@@H](C)C(=O)N[C@@H](CCCCN)C(=O)N[C@@H](CCCCN)C(=O)N[C@@H](CCCCN)C(=O)N[C@@H](CCCCN)C(=O)N[C@@H](CCCCN)C(=O)N[C@@H](CCCCN)C(N)=O [Peptide 7] (Ac-TRVSRTGRSRWRDWSRNFMRAAKKKKKK-NH2) | >64 µg/mL | >64 µg/mL
CSCC[C@H](NC(=O)[C@H](Cc1ccccc1)NC(=O)[C@H](CC(N)=O)NC(=O)[C@H](CCCNC(=N)N)NC(=O)[C@H](CO)NC(=O)[C@H](Cc1c[nH]c2ccccc12)NC(=O)[C@H](CC(=O)O)NC(=O)[C@H](CCCNC(=N)N)NC(=O)[C@H](Cc1c[nH]c2ccccc12)NC(=O)[C@H](CCCNC(=N)N)NC(=O)[C@H](CO)NC(=O)[C@H](CCCNC(=N)N)NC(=O)CNC(=O)[C@@H](NC(=O)[C@H](CCCNC(=N)N)NC(=O)[C@H](CO)NC(=O)[C@@H](NC(=O)[C@H](CCCNC(=N)N)NC(=O)[C@@H](NC(C)=O)[C@@H](C)O)C(C)C)[C@@H](C)O)C(=O)N[C@@H](CCCNC(=N)N)C(=O)N[C@@H](C)C(=O)N[C@@H](C)C(=O)N[C@@H](CCCNC(=N)N)C(=O)N[C@@H](CCCNC(=N)N)C(=O)N[C@@H](CCCNC(=N)N)C(=O)N[C@@H](CCCNC(=N)N)C(N)=O [Peptide 9] (Ac-TRVSRTGRSRWRDWSRNFMRAARRRR-NH2) | >64 µg/mL | >64 µg/mL
CCCCCCCCCCCC(=O)N[C@@H](CCCNC(=N)N)C(=O)N[C@@H](CC(=O)O)C(=O)N[C@H](C(=O)N[C@@H](C)C(=O)N[C@@H](CCCNC(=N)N)C(=O)N[C@@H](CC(N)=O)C(=O)N[C@@H](Cc1ccccc1)C(N)=O)C(C)C [Peptide 107, Lauryl-RDVARNF-NH2] (Lauroyl-RDVARNF-NH2) | >64 µg/mL | >64 µg/mL
